From ChEMBL document CHEMBL3399955, “Synthesis of a new series of dithiocarbamates with effective human carbonic anhydrase inhibitory activity and antiglaucoma action” (Bioorg Med Chem, 2015) come the findings set out here.

SMILES strings stand for the structures. pKi: −log10 of the molar value.

The species entered for one assay is Homo sapiens. Description: Reduction in intraocular pressure in patient with open-angle glaucoma. Format: functional, Eye.
Consider `CC(=O)Nc1nnc(S(N)(=O)=O)s1` [ACETAZOLAMIDE], for which the “inhibition (INH)” value is 25%.

In a further assay the test system is Oryctolagus cuniculus. In words: Antiglaucoma activity in New Zealand albino rabbit model of glaucoma assessed as reduction in intraocular pressure dosed as 2% eye drops immediately after injection of hypertonic saline measured 1 hr post dose. In kind it is functional.
`CCN[C@H]1C[C@H](C)S(=O)(=O)c2sc(S(N)(=O)=O)cc21` [DORZOLAMIDE]: the Activity was 4 mmHg.

For another assay, the species on record is Homo sapiens. Description: Reduction in intraocular pressure in glaucoma patient. In kind it is functional, Eye.
In turn, `CCN[C@H]1C[C@H](C)S(=O)(=O)c2sc(S(N)(=O)=O)cc21` [DORZOLAMIDE] returned an Activity of 4 mmHg.

The next assay addresses Carbonic anhydrase 9 (Homo sapiens, UniProt Q16790). In words: Inhibition of human recombinant carbonic anhydrase 9 expressed in Escherichia coli pre-incubated for 15 mins by stopped-flow CO2 hydration assay.
The term pKi denotes the negative decadic logarithm of the Ki, by convention in mol/L. `CC1COCCN1C(=S)S` (centres undefined): the pKi is 7.26. Take `OCCCNC(=S)S`: the pKi is 9.04.

With `O=C(O)C1CCCCN1C(=S)S` (centres undefined), the pKi was 7.14. Still for that read-out and setting: for `CN(C)CCNC(=S)S` the value was 7.42; for `O=C(O)[C@@H]1CCCN(C(=S)S)C1`, 7.38. In the case of `OCCCCNC(=S)S`, the pKi was 9.01. Turning to `CC(=O)NC1CCCN(C(=S)S)C1` (centres undefined), the pKi was 8.02. As to `S=C(S)NC1CN2CCC1CC2` (centres undefined), the pKi is 7.03. Consider `O=C(O)C1CCN(C(=S)S)CC1`, for which the negative-log Ki (pKi) is 7.11. For `S=C(S)N[C@@H]1CN2CCC1CC2`, the pKi is 7.08.

In the case of `O=C(CN1CCN(C(=S)S)CC1)NC1CCCCC1`, the negative-log Ki (pKi) was 7.10. With `O=C(O)C1COCCN1C(=S)S` (centres undefined), the pKi was 8.17. Take `OC1CCCN(C(=S)S)C1` (centres undefined): the pKi is 8.12. With `S=C(S)N[C@H]1CN2CCC1CC2`, the pKi is 7.14. `S=C(S)N1CCCCC1`: the pKi was 9.04.

Consider `NS(=O)(=O)c1ccc(CCNC(=S)S)cc1`, for which the pKi is 9.04. Regarding `OCCCCCNC(=S)S`, the pKi was 8.59. Consider `O=C(O)[C@H]1CCCN(C(=S)S)C1`, for which the negative logarithm of the Ki (pKi) was 7.06. Take `S=C(S)NCCc1ccccc1`: the pKi was 7.60.

Turning to `O=C(O)C1CCCN(C(=S)S)C1` (centres undefined), the pKi was 7.17.

A further assay relates to Oryctolagus cuniculus. Description: Antiglaucoma activity in New Zealand albino rabbit model of glaucoma assessed as reduction in intraocular pressure dosed as 2% eye drops immediately after injection of hypertonic saline measured 2 hrs post dose. Format: functional.
Consider `CCN[C@H]1C[C@H](C)S(=O)(=O)c2sc(S(N)(=O)=O)cc21` [DORZOLAMIDE], for which the Activity is recorded as 3 mmHg.
